Values quoted from earlier work as cited in patent US5547668A, “Conjugates of folate anti-effector cell antibodies” (The Board of Trustees of The University of Illinois, priority 1995, dated 1996).

Tested on: FR

| SMILES | affinity for the FR |
| --- | --- |
| C#CCN(Cc1ccc2nc(N)[nH]c(=O)c2c1)c1ccc(C(=O)N[C@@H](CCC(=O)O)C(=O)O)cc1 [CB3717, N^10-propargyl-5,8-dideazafolic acid] | bind with high affinity |
| C#CCN(Cc1ccc2nc(C)[nH]c(=O)c2c1)c1ccc(C(=O)N[C@@H](CCC(=O)O)C(=O)O)cc1 [ICI-198,583, 2-deamino-2-methyl-N^10-propargyl-5,8-dideazafolic acid] | bind with high affinity |
| CN(Cc1cnc2nc(N)nc(N)c2n1)c1ccc(C(=O)N[C@@H](CCC(=O)O)C(=O)O)cc1 [MTX, methotrexate] | does not bind to MTX with high affinity |
